Calls of active or inactive are those of the source.
Columns and labels:
Cytochrome P450 2C19 = Cytochrome P450 2C19 (Homo sapiens, UniProt P33261); assay: Cytochrome panel assay with activity outcomes. Panel member name: p450-cyp2c19 Compounds with AC50 equal or less than 10 uM are considered active; format: functional
Cytochrome P450 2C9 = Cytochrome P450 2C9 (Homo sapiens, UniProt P11712)
[1] = tested on: Streptococcus sp. 'group A'; assay: growth inhibition of control SK(-) GAS strain, dose response, counter-screen for streptokinase expression inhibitor project, luminescence, kanamycin, BacTiterGlo, confirmation (AID 1900); format: functional, organism-based
Streptococcus = assay: Group A Streptococcus viability loss, dose response, counter-screen for streptokinase expression inhibitor project, luminescence, BacTiterGlo (AID 1915); format: functional, organism-based;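 note: potency for reduction of bacterial viability or growth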
[2] = Luminescence Cell-Based Dose Retest to Confirm Inhibitors of Cancer Stem Cells. [Related pubchem assays (depositor defined):AID2717, AID2721]; format: functional; conditions: Homo sapiens
[3] = inhibitors of intracellular T. cruzi replication, confirmation, NIH3T3 host cells, beta-gal luminescence (AID 2044); format: functional, cell-based;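 note: intracellular parasites grown in NIH/3T3 mouse fibroblasts as host cells; luminescent beta-galactosidase reporter signal from transgenic T. cruzi replicating inside host cells; inhibitors lower the luminescence signal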
[4] = cytotoxicity toward NIH3T3 fibroblasts, dose response, counter-screen, cell-based, ATP luminescence, mouse fibroblasts (AID 2010); format: functional;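 note: cells exposed to compound for about 90 hours before reading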
Cytochrome P450 2D6 = Cytochrome P450 2D6 (Homo sapiens, UniProt P10635);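 note: CYP2D6 member of a cytochrome P450 panel assay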
[5] = target: T1, Heat shock factor protein 1 (Mus musculus, UniProt P38532); assay: inhibition of MG132-induced HSE-luciferase signal, confirmation, cell-based, NIH3T3, luminescence, dose retest (AID 2382); format: functional;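 note: NIH3T3 fibroblasts with HSF1-driven luciferase reporter stressed by proteasome inhibitor MG132; luminescence from HSF1-driven luciferase expression after 8 hours of MG132 stress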
T1 sequence (P38532 whole entry): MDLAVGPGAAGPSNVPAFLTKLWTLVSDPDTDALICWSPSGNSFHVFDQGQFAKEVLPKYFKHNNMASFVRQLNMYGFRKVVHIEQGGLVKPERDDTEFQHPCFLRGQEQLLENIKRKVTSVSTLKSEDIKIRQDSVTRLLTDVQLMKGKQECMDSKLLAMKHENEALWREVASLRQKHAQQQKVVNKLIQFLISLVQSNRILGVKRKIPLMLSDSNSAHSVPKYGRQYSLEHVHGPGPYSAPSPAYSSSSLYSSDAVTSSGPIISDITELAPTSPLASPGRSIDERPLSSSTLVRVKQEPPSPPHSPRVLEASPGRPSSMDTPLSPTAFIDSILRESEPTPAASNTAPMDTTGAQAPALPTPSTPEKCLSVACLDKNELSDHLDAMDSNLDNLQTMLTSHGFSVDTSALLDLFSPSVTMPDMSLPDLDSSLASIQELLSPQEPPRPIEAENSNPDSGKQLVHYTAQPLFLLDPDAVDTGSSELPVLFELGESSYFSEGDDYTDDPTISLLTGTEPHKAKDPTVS

Cytochrome P450 2C19, sequence (P33261 whole entry): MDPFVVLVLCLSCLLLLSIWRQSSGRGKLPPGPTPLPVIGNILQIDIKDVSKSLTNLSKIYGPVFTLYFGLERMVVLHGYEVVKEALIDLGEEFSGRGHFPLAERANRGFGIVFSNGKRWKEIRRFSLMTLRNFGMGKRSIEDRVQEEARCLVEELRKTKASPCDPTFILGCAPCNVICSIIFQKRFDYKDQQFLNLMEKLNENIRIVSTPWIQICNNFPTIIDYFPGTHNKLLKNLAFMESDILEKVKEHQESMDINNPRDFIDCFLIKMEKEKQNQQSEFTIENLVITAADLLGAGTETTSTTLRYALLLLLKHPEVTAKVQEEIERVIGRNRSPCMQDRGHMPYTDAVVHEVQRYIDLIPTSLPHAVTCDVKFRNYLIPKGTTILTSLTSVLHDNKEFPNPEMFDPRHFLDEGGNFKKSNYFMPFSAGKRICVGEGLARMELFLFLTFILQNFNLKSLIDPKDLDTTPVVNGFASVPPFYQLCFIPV
Cytochrome P450 2C9, sequence (P11712 whole entry): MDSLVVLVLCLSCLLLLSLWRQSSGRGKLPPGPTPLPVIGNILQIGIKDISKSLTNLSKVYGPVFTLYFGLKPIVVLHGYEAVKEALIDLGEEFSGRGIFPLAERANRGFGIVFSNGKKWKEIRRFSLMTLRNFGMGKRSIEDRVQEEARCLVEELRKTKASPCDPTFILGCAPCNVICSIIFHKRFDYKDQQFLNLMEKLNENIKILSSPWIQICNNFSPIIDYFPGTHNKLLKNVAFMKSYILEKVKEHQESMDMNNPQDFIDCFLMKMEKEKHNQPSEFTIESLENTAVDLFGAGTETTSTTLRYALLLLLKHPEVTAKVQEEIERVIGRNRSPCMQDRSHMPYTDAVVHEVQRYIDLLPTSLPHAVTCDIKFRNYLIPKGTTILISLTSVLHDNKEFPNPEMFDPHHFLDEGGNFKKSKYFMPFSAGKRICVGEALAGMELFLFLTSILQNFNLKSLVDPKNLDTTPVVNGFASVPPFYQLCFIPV
Cytochrome P450 2D6, sequence (P10635 whole entry): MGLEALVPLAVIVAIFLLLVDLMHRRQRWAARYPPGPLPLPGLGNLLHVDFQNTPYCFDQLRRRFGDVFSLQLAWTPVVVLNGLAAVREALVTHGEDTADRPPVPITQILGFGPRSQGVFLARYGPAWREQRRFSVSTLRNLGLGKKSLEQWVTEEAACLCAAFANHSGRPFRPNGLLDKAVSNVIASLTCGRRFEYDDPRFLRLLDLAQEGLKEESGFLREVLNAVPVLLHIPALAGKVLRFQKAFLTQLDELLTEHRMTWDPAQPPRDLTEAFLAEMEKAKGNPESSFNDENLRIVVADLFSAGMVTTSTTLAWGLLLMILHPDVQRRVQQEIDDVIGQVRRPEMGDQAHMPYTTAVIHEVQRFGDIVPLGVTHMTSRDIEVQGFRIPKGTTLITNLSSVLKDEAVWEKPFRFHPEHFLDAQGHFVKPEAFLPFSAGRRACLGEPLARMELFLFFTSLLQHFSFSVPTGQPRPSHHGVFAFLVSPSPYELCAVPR

Cc1cc(N)c2ccccc2[n+]1CCCCCCCCCCCCCC[n+]1c(C)cc(N)c2ccccc21
AC50 (Cytochrome P450 2C19; read-out: AC50): 31.6 µM (inconclusive)
AC50 (Cytochrome P450 2C9): 39.8 µM (inconclusive)

CCOc1ccc(-n2cc(-c3ccccc3)c3c(S)ncnc32)cc1
EC50 [1]: 6.95 µM (active)
EC50 (Streptococcus): 14.9 µM (active)

O=c1c2ccccc2nc(/C=C/c2ccccc2F)n1-c1ccccc1O
AC50 [2]: 2.4 µM (active)

CCOC(=O)C(C(=O)NCc1ccc(C)cc1)c1ncc(C(F)(F)F)cc1Cl (centres undefined)
AC50 (Cytochrome P450 2C19; read-out: AC50): 11.2 µM (inconclusive)

COc1cccc(CC2(CO)CCCN(Cc3ccc(C)s3)C2)c1 (centres undefined)
EC50 [3]: 0.635 µM (active)
EC50 [4]: > 30 µM (not active)

C[C@@H](C(=O)Nc1ccc2ccccc2c1)[C@@H]1C[C@@]1(C)[C@@H](NC(=O)c1ccncc1Cl)c1ccccc1
AC50 (Cytochrome P450 2C9): 39.8 µM (inconclusive)

COc1ccccc1CNc1nc(-c2cccc(C#N)c2)nc2ccccc12
AC50 (Cytochrome P450 2C9): 1 µM (inconclusive)

CN1CCN(NC(=O)c2cn(-c3ccccc3)nc2-c2cccc(Br)c2)CC1
EC50 [3]: 2.81 µM (active)
EC50 [4]: 4.99 µM (active)

CC(=O)OC[C@@H]1O[C@@H](O/N=C2/C[C@@H](O)[C@@H](O)[C@@H]3[C@@H]4C(=O)N(C[C@@H]5CCCO5)C(=O)[C@H]4CC[C@@H]23)[C@H](OC(C)=O)[C@H](OC(C)=O)[C@@H]1OC(C)=O
AC50 (Cytochrome P450 2D6): 3.98 µM (inconclusive)

CC1CC2=C(N=C(S)NC2c2cccc(F)c2)/C(=C/c2cccc(F)c2)C1 (centres undefined)
EC50 [3]: 1.83 µM (active)
EC50 [4]: > 60 µM (inconclusive)

Cc1ccc(NS(=O)(=O)c2cc3c4c(cccc4c2)C(=O)NC3=O)cc1C
AC50 [2]: 5.69 µM (active)

C[C@@]12CCC=C[C@H]1[C@H](c1ccc(F)c(/C=C/c3ccccc3)c1)N(Cc1ccccc1)C2=O
AC50 [2]: 2.84 µM (active)

CCCc1nnc(NC(=O)CCC(=O)NCc2ccccc2OC)s1
AC50 (Cytochrome P450 2C19; read-out: AC50): 11.2 µM (inconclusive)

O=c1c(-c2cccs2)nc2cnc(N3CCNCC3)nc2n1-c1ccccc1
AC50 (Cytochrome P450 2D6): 20 µM (inconclusive)
AC50 (Cytochrome P450 2C9): 20 µM (inconclusive)

CCCCCc1nnc(NC(=O)C(=O)OCC)s1
AC50 (Cytochrome P450 2C9): 28.2 µM (inconclusive)

CCC(=O)Nc1ccc(C(=O)OCC(=O)c2ccc(C)c([N+](=O)[O-])c2)cc1
AC50 (Cytochrome P450 2C19; read-out: AC50): 11.2 µM (inconclusive)
AC50 (Cytochrome P450 2D6): 35.5 µM (inconclusive)

CCc1ccc(-c2cc(C(F)(F)F)n3nc(C(=O)Nc4c(C)nn(Cc5ccccc5C)c4C)cc3n2)s1
EC50 [3]: 2.21 µM (active)
EC50 [4]: > 60 µM (inconclusive)

CCOc1ccc(CSC2=NCCN2)cc1Cl
EC50 [3]: 1.1 µM (active)
EC50 [4]: > 60 µM (not active)

CCOc1cc(CNCCCN2CCOCC2)ccc1OCC(=O)NC(C)(C)C
EC50 [3]: 0.87 µM (active)
EC50 [4]: > 60 µM (not active)

Cn1c(Sc2ccc(-c3cccnc3)n2C)ccc1-c1cccnc1
AC50 (Cytochrome P450 2D6): 3.16 µM (inconclusive)
AC50 (Cytochrome P450 2C9): 3.98 µM (inconclusive)

CCOc1ccc(CN2CCN(Cc3cc4ccccc4[nH]3)CC2CCO)cc1 (centres undefined)
EC50 [3]: 0.371 µM (active)
EC50 [4]: > 60 µM (not active)

Cc1ccc(CCN2CC(C(=O)NC3CCCC3)CC2=O)cc1 (centres undefined)
AC50 (Cytochrome P450 2C19; read-out: AC50): 14.1 µM (inconclusive)

CSc1[nH]c(-c2ccc(C)cc2)nc1S(=O)(=O)c1ccccc1
AC50 (Cytochrome P450 2C9): 11.2 µM (inconclusive)

COc1cccc2c1C(=N)c1c(O)c3c(c(O)c1C2=O)C[C@](O)(C(C)=O)C[C@@H]3O[C@H]1C[C@H](N)[C@@H](O)[C@H](C)O1
AC50 (Cytochrome P450 2D6): 3.16 µM (inconclusive)

COc1cccc(C(=O)Nc2ccc(NC(=O)C3CC=CCC3C(=O)O)cc2)c1 (centres undefined)
EC50 [5]: > 195 µM (not active)

OCCNc1nc(NCCC2=CCCCC2)nc(N2CCOCC2)n1
AC50 (Cytochrome P450 2C19; read-out: AC50): 15.8 µM (inconclusive)

CCn1nccc1C(=O)Nc1nc2ccccc2n1CCN1CCCCC1
AC50 (Cytochrome P450 2D6): 4.47 µM (inconclusive)

O[C@@H](c1cc([C@@]23C[C@H]4CC[C@@H]2C[C@H](C4)C3)nc2c(Cl)cc(Cl)cc12)[C@@H]1CCCCN1
AC50 (Cytochrome P450 2C19; read-out: AC50): 0.794 µM (inconclusive)
AC50 (Cytochrome P450 2D6): 3.16 µM (inconclusive)

CN(C)c1ncc2nc(CCc3ccccc3)c(=O)n(CCc3ccccc3)c2n1
AC50 (Cytochrome P450 2D6): 7.94 µM (inconclusive)

O=C(NNc1ccccc1Br)C(=O)n1ccc2ccccc21
AC50 [2]: 3.46 µM (active)

COc1ccccc1C(=O)Nc1ccnn1C1CCN(Cc2cnc(N(C)C)s2)CC1
EC50 [3]: 0.852 µM (active)
EC50 [4]: > 60 µM (not active)

COc1ccc(N2CCN(c3nc(Nc4ccc(C)c(F)c4)nc(N4CCCC4)n3)CC2)cc1
EC50 [3]: 3.17 µM (active)
EC50 [4]: > 60 µM (not active)

Cc1noc(C)c1C(=O)N1CCC2(CCN(Cc3cc(C(F)(F)F)cc(C(F)(F)F)c3)CC2)CC1
AC50 (Cytochrome P450 2D6): 39.8 µM (inconclusive)

CC(=O)c1ccc(-c2ccc([C@H]3[C@H]4C=CC[C@@H](C)[C@@H]4C(=O)N3Cc3ccccc3)c(F)c2)cc1
AC50 [2]: 5.57 µM (active)

N=C(NOC(=O)COc1ccc2ccccc2c1Br)c1ccncc1
EC50 [3]: 2.84 µM (active)
EC50 [4]: > 60 µM (not active)

Cn1c(=O)n(Cc2ccc(F)cc2)c(=O)c2c1nc1n2CCCN1C1CCCCC1
AC50 [2]: 3.33 µM (active)

FC(F)(F)c1ccc(CNCCc2ccc3c(c2)OCO3)cc1
EC50 [3]: 0.308 µM (active)
EC50 [4]: > 60 µM (not active)

O=C(CSc1nnc(-c2ccccn2)n1Cc1ccco1)Nc1ccc2c(c1)OCO2
AC50 (Cytochrome P450 2C9): 15.8 µM (inconclusive)

Clc1ccccc1CNCC1CCC(CNCc2ccccc2Cl)CC1 (centres undefined)
AC50 (Cytochrome P450 2C9): 1.26 µM (inconclusive)

COc1ccccc1-c1cc(NCc2cccnc2)ncn1
AC50 (Cytochrome P450 2D6): 20 µM (inconclusive)

CCc1nc2c(c(SC)nn2-c2ccccc2)c(N)c1C(=O)OC
AC50 (Cytochrome P450 2C19; read-out: AC50): 25.1 µM (inconclusive)
AC50 (Cytochrome P450 2C9): 1.12 µM (inconclusive)

CC(NC(=O)CN=C(S)N(Cc1ccccc1)Cc1cccnc1)c1ccccc1 (centres undefined)
EC50 [3]: 0.805 µM (active)
EC50 [4]: 10.8 µM (active)

Oc1[nH]c2ccccc2c1N=Nc1ccc(C(F)(F)F)cn1
AC50 (Cytochrome P450 2C19): inconclusive

O=S(=O)(NCC(c1cccnc1)N1CCN(Cc2ccccc2)CC1)c1cc(F)ccc1F (centres undefined)
EC50 [3]: 0.677 µM (active)
EC50 [4]: > 60 µM (not active)

Nc1nnc(SCC(=O)OCC(=O)NC2CCCCC2)s1
AC50 [2]: > 195 µM (inactive)

CC(C)C12CC[C@@]3(CC[C@H]4[C@@](C)(CCC[C@]4(C)C(=O)O)[C@@H]3C1)[C@@H](CN)C2
AC50 (Cytochrome P450 2C9): 1.26 µM (inconclusive)

COc1ccc(C2NCCc3c2[nH]c2ccccc32)cc1CN1CCc2cc(OC)c(OC)cc2C1C (centres undefined)
EC50 [3]: 1.98 µM (active)
EC50 [4]: > 60 µM (not active)

COC(=O)c1ccccc1NC(=O)CSc1nnc(C(CO)NC(=O)c2ccccc2)n1C (centres undefined)
EC50 [5]: > 195 µM (not active)

O=C(CSc1ccc(Cl)cc1)Nc1cccc(NC(=O)c2ccco2)c1
AC50 (Cytochrome P450 2C9): 5.01 µM (inconclusive)

Cc1cccc(Cl)c1OCCCCn1ccnc1
EC50 [3]: 1.62 µM (active)
EC50 [4]: > 60 µM (not active)

COc1ccccc1CCn1c(=O)c(-c2cccc(F)c2)nc2cncnc21
AC50 (Cytochrome P450 2D6): 39.8 µM (inconclusive)

COc1cc(-c2ccc3c(=O)c4ccccc4n(C)c3c2)cc(OC)c1OC
AC50 [2]: 9.62 µM (active)

C[C@@H]1C[C@H](OC(=O)[C@@H](O)c2ccccc2)CC(C)(C)N1C
AC50 (Cytochrome P450 2D6): 15.8 µM (inconclusive)

O=C(CCNS(=O)(=O)c1cccc2nsnc12)NCc1cccs1
EC50 [5]: > 195 µM (not active)

Cc1ccnc(NS(=O)(=O)c2ccc(NC(=O)C3CCCNC3=O)cc2)n1 (centres undefined)
AC50 (Cytochrome P450 2C19): inconclusive

Oc1cc(O)c2c(c1)O[C@@H](c1ccc(O)c(O)c1)[C@H](O[C@@]1(c3cc(O)c(O)c(O)c3)Oc3cc(O)cc(O)c3[C@H](O)[C@@H]1O)C2
AC50 (Cytochrome P450 2C19; read-out: AC50): 3.98 µM (inconclusive)
AC50 (Cytochrome P450 2C9): 6.31 µM (inconclusive)

CCOc1cc(/C=C\c2nc(O)nc(O)c2[N+](=O)[O-])ccc1OC(C)CC (centres undefined)
AC50 [2]: 8.11 µM (active)

Cc1noc(C)c1C(=O)N1CCC[C@@]2(CCN(c3ccccn3)C2)C1
AC50 (Cytochrome P450 2D6): 6.31 µM (inconclusive)

Cc1[nH]n(-c2ccccc2)c(=O)c1/C=N/NC(=O)c1ccccc1F
EC50 [1]: 3.54 µM (active)
EC50 (Streptococcus): 6.72 µM (active)

COc1ccc(/C(C)=N/NC(=O)c2ccc(CSc3cccc4cccnc34)cc2)cc1OC
AC50 (Cytochrome P450 2C9): 1.26 µM (inconclusive)

Cc1ccc(-c2csc(N/N=C/c3ccco3)n2)cc1
AC50 (Cytochrome P450 2C9): 20 µM (inconclusive)

COc1ccc(OC)c(/N=C2\SCCCN2C(=O)c2ccc(N3C(=O)CCC3=O)cc2)c1
EC50 [5]: > 195 µM (not active)

CC(C)c1c(CN(C)[C@@H](C)Cc2ccccc2)n(C)n(-c2ccccc2)c1=O [FAMPROFAZONE]
AC50 (Cytochrome P450 2C19; read-out: AC50): 15.8 µM (inconclusive)
AC50 (Cytochrome P450 2D6): 10 µM (inconclusive)

COc1cc2nc(N3CCN(C(=O)OCc4ccccc4)[C@H](C(=O)NC(C)(C)C)C3)nc(N)c2cc1OC [L-765314]
AC50 (Cytochrome P450 2D6): 31.6 µM (inconclusive)
